# Measurements from PubChem BioAssay (NCI).
#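 In this assay, cells in 96-well plates receive the compound at five concentrations for 48 hours. Endpoints are linearly interpolated between the surrounding concentrations. The concentration for full growth arrest is given as TGI.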
# How the values were obtained:
# Assay in all cases: DTP human tumour cell line panel, 48 h
# A498 renal = tested on: A498 renal
# HCT-15 colon = tested on: HCT-15 colon
# HOP-62 NSCLC = tested on: HOP-62 NSCLC
# HS 578T breast = tested on: HS 578T breast
# HT29 colon = tested on: HT29 colon
# M14 melanoma = tested on: M14 melanoma
# MDA-MB-435 = tested on: MDA-MB-435
# MDA-N = tested on: MDA-N
# NCI/ADR-RES ovarian = tested on: NCI/ADR-RES ovarian
# RPMI-8226 leukemia = tested on: RPMI-8226 leukemia
# UACC-257 melanoma = tested on: UACC-257 melanoma
# SK-MEL-5 melanoma = tested on: SK-MEL-5 melanoma
Compound,TGI (A498 renal),TGI (HCT-15 colon),TGI (HOP-62 NSCLC),TGI (HS 578T breast),TGI (HT29 colon),TGI (M14 melanoma),TGI (MDA-MB-435),TGI (MDA-N),TGI (NCI/ADR-RES ovarian),TGI (RPMI-8226 leukemia),TGI (UACC-257 melanoma),TGI (SK-MEL-5 melanoma)
CCO/C(O)=C(/C(=N)N1CCCC1)C(=O)Nc1ccc(Cl)cc1,> 100 µM,> 100 µM,> 100 µM,> 100 µM,> 100 µM,> 100 µM,> 100 µM,> 100 µM,> 100 µM,> 100 µM,> 100 µM,
CC(C)N(c1cc2c(cc1F)c(=O)c(C(=O)O)cn2-c1ccc(N2CCN(C)CC2)cn1)C(C)C,> 100 µM,> 100 µM,> 100 µM,> 100 µM,> 100 µM,> 100 µM,> 100 µM,> 100 µM,> 100 µM,> 100 µM,> 100 µM,
COc1ccc(-n2cnc3c(NC(C)(C)C(=O)O)ncnc32)cc1,> 100 µM,> 100 µM,> 100 µM,> 100 µM,> 100 µM,> 100 µM,> 100 µM,> 100 µM,> 100 µM,> 100 µM,> 100 µM,> 100 µM
CC(C)(C)C(=O)Nc1cccc(-c2ccc[nH]2)n1,> 100 µM,> 100 µM,> 100 µM,87.5 µM,> 100 µM,> 100 µM,> 100 µM,> 100 µM,> 100 µM,25.5 µM,> 100 µM,> 100 µM
CN1CCC/C1=C1\C(=O)c2cccn2C1=O,> 100 µM,> 100 µM,> 100 µM,> 100 µM,> 100 µM,> 100 µM,> 100 µM,> 100 µM,> 100 µM,> 100 µM,> 100 µM,> 100 µM
CC(C)C(Cl)CC/C(CBr)=C(\Cl)CCl (stereo not given),35.7 µM,10.4 µM,31.1 µM,11.8 µM,11.7 µM,4.06 µM,10 µM,5.63 µM,> 79.1 µM,5 µM,11 µM,5.95 µM
COC(=O)c1c(C(=O)OC)c(C(c2ccccc2)c2ccccc2)n(-c2ccccc2)c1Cl,> 10 µM,> 10 µM,> 10 µM,> 10 µM,> 10 µM,> 10 µM,> 10 µM,> 10 µM,> 10 µM,> 10 µM,> 10 µM,> 10 µM
COc1cc(/C=N/NC2=NCCCN2)ccc1O,> 100 µM,> 100 µM,> 100 µM,> 100 µM,> 100 µM,> 100 µM,> 100 µM,> 100 µM,> 100 µM,> 100 µM,> 100 µM,> 100 µM
O=C1CCSc2c(cnc3ccccc23)N1,> 100 µM,> 100 µM,> 100 µM,> 100 µM,> 100 µM,> 100 µM,> 100 µM,> 100 µM,> 100 µM,> 100 µM,> 100 µM,> 100 µM
COc1ccc(N2C(=O)/C(=C\c3cc(OC)c(OC)c(OC)c3)S(=O)(=O)C2c2ccccc2)cc1 (stereo not given),> 100 µM,> 100 µM,> 100 µM,> 100 µM,,84.2 µM,72.3 µM,40.8 µM,78.9 µM,> 100 µM,> 100 µM,> 100 µM
C[C@@H]1OC2(O)[C@@H]3CCCN3C(=O)N(Cc3ccccc3)N2C1=O (stereo not given in full),> 100 µM,> 100 µM,> 100 µM,> 100 µM,> 100 µM,> 100 µM,> 100 µM,> 100 µM,> 100 µM,,> 100 µM,> 100 µM
COc1ccc(CCN(C)C(=O)CC(C#N)(c2ccccc2)c2ccc(OC)c(OC)c2)cc1OC (stereo not given),> 100 µM,> 100 µM,> 100 µM,> 100 µM,> 100 µM,> 100 µM,> 100 µM,> 100 µM,> 100 µM,> 100 µM,> 100 µM,> 100 µM
C#C[C@]1(O)CC[C@H]2[C@@H]3CCC4=C/C(=N\OCCN5CCCC5)CC[C@]4(C)[C@H]3CC[C@@]21C,50.4 µM,35 µM,26.7 µM,21.7 µM,29.7 µM,22.5 µM,15 µM,11.3 µM,31.5 µM,13.2 µM,22.9 µM,15.4 µM
C=CC1(c2ccc(Br)cc2)OCCCO1,,> 100 µM,> 100 µM,> 100 µM,> 100 µM,> 100 µM,> 100 µM,> 100 µM,> 100 µM,> 100 µM,> 100 µM,> 100 µM
COC(=O)/C=C(\S/C(=C(/c1ccc(OC)cc1)n1cc(C(=O)OC)c(C(=O)OC)n1)c1ccc(OC)cc1)C(=O)OC,> 100 µM,37.9 µM,> 100 µM,> 100 µM,30.7 µM,> 100 µM,34.2 µM,> 100 µM,> 100 µM,> 100 µM,25.3 µM,> 100 µM
CCOC(=O)Oc1cc2c(ccn2C)c2c1c1ccccc1n2C(=O)OCC,> 100 µM,> 100 µM,> 100 µM,> 100 µM,> 100 µM,> 100 µM,> 100 µM,> 100 µM,> 100 µM,> 100 µM,> 100 µM,> 100 µM
C/C(=C/CNc1ncnc2c1ncn2CCC#N)CO,> 100 µM,,> 100 µM,> 100 µM,> 100 µM,> 100 µM,> 100 µM,> 100 µM,> 100 µM,> 100 µM,> 100 µM,> 100 µM
CCOC(=O)c1c(-c2ccccc2)[nH]c2ccc(Cl)cc2c1=O,,> 100 µM,> 100 µM,> 100 µM,> 100 µM,> 100 µM,> 100 µM,> 100 µM,> 100 µM,> 100 µM,> 100 µM,> 100 µM
COC(=O)c1nc2c3c(cccc3c1C(=O)OC)Nc1ccccc1-2,> 100 µM,,71.7 µM,> 100 µM,> 100 µM,> 100 µM,> 100 µM,> 100 µM,> 100 µM,> 100 µM,> 100 µM,56.5 µM
